Here are results for 1 compound from patent US5215994A, “Angiotenin II antagonizing heterocyclic derivatives” (Fujisawa Pharmaceutical Co., Ltd., priority 1990, dated 1993).

This test relates to contractile response to angiotensin II in excised guinea pig ileum. The test is described as follows: Inhibition by the antagonist of contractile response to angiotensin II in excised guinea pig ileum. Particulars: excised guinea pig ileum longitudinal strips; angiotensin II 10^-8 g/ml; test compound added 3 minutes prior; atropine present; 37° C.; read-out: IC50 (inhibition of angiotensin II contraction, percentage change to control response). The method, then: [2] Inhibition by the antagonist of contractile response to angiotensin II in excised guinea pig ileum
Male guinea pigs weighing 300 g to 500 g were sacrificed by decapitation and the ileum were excised. Longitudial strips of the ileum (length: 2 cm) were placed in a 25 ml organ bath containing Tyrode's solution of the following composition (mM): NaCl, 137; KCl, 2.7; CaCl2, 1.8; MgCl2, 1.1; NaH2 PO4, 0.4; NaHCO3, 12; Glucose, 5.6.
The bath was maintained at 37° C. and bubbled with 95% O2 +5% CO2. The strips was stretched with a resting force of 0.5 g, and the isometric contraction were recorded via force development transducer on an ink-writing recorder. The preparation was equilibrated in Tyrode's solution mentioned above for 30 minutes, and then exposed to atropine (3.2×10^-7 g/ml) Five minutes later, the response for angiotensin II (1×10^-8 g/ml) was obtained and the preparation was washed a few times. This procedure was repeated twice. […] The inhibition of the test compound for angiotensin II contraction were expressed as a percentage change to control response, and IC50 (M) was calculated.

The structures appear in SMILES notation.

By IC50 is commonly meant the concentration that inhibits the measured activity by half.

In the case of `CCCCc1nc2c(C)ccnc2n1Cc1ccc(-n2cc(Br)cc2-c2nnn[nH]2)cc1` [Compound 1, 3-[4-[4-Bromo-2-(1H-tetrazol-5-yl)-1-pyrrolyl]benzyl]-2-butyl-7-methyl-3H-imidazo[4,5-b]pyridine], the IC50 was found to be 1.7 nM.
